Read-outs that look alike come from different tables or passages of the source.
Columns and labels:
TDP1 [1] = biological target: T1, TDP1 (Homo sapiens, UniProt Q9NUW8); assay: Real-time fluorescence detection of TDP1 activity (FAM/BHQ1 oligonucleotide biosensor); assay type: biochemical
T1 construct: made in house
Source text: To determine the inhibitory properties of the new compounds against TDP1 we used a previously designed real-time oligonucleotide biosensor with 5(6)-carboxyfluorescein (FAM) at the 5′ end and fluorophore quencher BHQ1 (Black Hole Quencher-1) at the 3′-end.
The biosensor, 16-mer DNA oligonucleotide (5′-[FAM] AAC GTC AGGGTC TTC C [BHQ]-3′) was synthesized in the Laboratory of Nucleic Acid Chemistry at the Institute of Chemical Biology and Fundamental Medicine (Novosibirsk, Russia). Real-time fluorescence detection of TDP1 enzyme activity was carried out as described. The recombinant TDP1 was purified as described, using plasmid pET 16B-TDP1, kindly provided by Dr. K.W. Caldecott (University of Sussex, Brighton, UK). To the reaction mixture (200 μL) containing 50 nM oligonucleotide in buffer (50 mM Tris-HCl, pH 8.0, 50 mM NaCl, and 7 mM β-mercaptoethanol), varied concentrations of the tested compounds and purified TDP1 in a final concentration of 1.5 nM were added.
Fluorescence intensity was measured (Ex485/Em520 nm) using POLARstar OPTIMA fluorimeter (BMG LABTECH, GmbH, Ortenberg, Germany) every 1 min for 7 min. The half maximal inhibitory concentrations (IC50) were determined using a six-point concentration response curve and calculated using MARS Data Analysis 2.0 (BMG LABTECH). At least three independent experiments were carried out to obtain the IC50 values.

[2] = Cytotoxicity of compounds, MTT test, HeLa; assay type: cell-based; conditions: human, HeLa cells, compound alone
Procedure: (§1) The cytotoxicity of the compounds to HeLa (human cervical cancer) and HEK293A (human embryonic kidney) cell lines was determined using standard colorimetric MTT-test. Cells were seeded in 96-well plates (5000 cells per well) and cultured in DMEM medium (Invitrogen, Carlsbad, CA, USA) supplemented with 10% fetal bovine serum (FBS) (Invitrogen), penicillin (100 units/mL), and streptomycin (100 μg/mL) at 37 °C and 5% CO2 in a humid atmosphere. Control wells contained 1% DMSO. At 30–50% confluence, the tested compounds were added to the medium. To determine the cytotoxicity of Tdp1 inhibitors, the cells were allowed to attach for 24 h and were treated with compounds with concentrations ranging from 1 to 100 μM for 72 h at 37 °C. All measurements were repeated three times.

[3] = Cytotoxicity of compounds, MTT test, HEK293A; assay type: cell-based; conditions: human, HEK293A cells, compound alone, read-out: CC50 HEK 293A
Procedure: as §1

HEK293A cells = assay: Effect of compounds on topotecan cytotoxicity, MTT test, HEK293A; assay type: cell-based, human; conditions: 10 µM compound, result in words
Procedure: as §1
(§2) To study the effect of the compounds on the cytotoxicity of topotecan, an aqueous solution of topotecan was used at concentrations from 0.2 to 2 μM for HeLa cells and from 0.05 to 0.5 μM for HEK293A cells against the background of 10 μM of the compounds. Cells treated with compounds alone without topotecan were used as controls.

TDP1 [4] = biological target: T1, TDP1; set-up: method as in PMID 27658793, PMID 31878088; conditions: previously found 7-hydroxycoumarin derivatives; cited from earlier work
HeLa cells = assay: Effect of compounds on topotecan cytotoxicity, MTT test, HeLa; assay type: cell-based, human
Procedure: as §1, §2

[5] = Effect of compounds on topotecan cytotoxicity, MTT test, HEK293A; assay type: cell-based, human; conditions: human
Procedure: as §1, §2

[6] = Table 1, recombinant TDP1 1.5 nM, 50 nM oligonucleotide, read-out: TDP1 inhibitory activities (IC50)
[7] = Table 2, TDP1 IC50, partly rounded, read-out: IC50

T1 sequence (Q9NUW8 whole entry): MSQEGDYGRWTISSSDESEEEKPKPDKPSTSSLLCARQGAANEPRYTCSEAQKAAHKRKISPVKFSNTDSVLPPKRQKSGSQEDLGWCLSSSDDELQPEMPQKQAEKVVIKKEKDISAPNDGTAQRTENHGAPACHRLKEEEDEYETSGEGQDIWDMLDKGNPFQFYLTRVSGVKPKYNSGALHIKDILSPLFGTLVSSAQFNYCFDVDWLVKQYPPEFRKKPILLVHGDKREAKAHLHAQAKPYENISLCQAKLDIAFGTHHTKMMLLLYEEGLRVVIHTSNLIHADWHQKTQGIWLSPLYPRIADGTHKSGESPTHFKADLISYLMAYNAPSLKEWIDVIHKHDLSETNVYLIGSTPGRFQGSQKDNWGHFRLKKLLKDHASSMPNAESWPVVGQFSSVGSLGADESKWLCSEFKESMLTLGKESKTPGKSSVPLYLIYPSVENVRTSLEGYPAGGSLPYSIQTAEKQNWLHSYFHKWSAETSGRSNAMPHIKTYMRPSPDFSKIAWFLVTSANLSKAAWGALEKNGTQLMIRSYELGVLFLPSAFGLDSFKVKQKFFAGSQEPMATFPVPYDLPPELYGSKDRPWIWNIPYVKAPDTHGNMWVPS

SMILES	IC50 (TDP1 [1]; [6])	IC50 (TDP1 [1]; [7])	CC50 at 72 h [2]	CC50 at 72 h [3]	Effect on the cytotoxic effect of topotecan, HEK293A (HEK293A cells)	melting point	IC50 (TDP1 [4])	CC50 (HeLa cells; Homo sapiens, HeLa, read-out: Tpc CC50 HeLa)	CC50 [5]	Effect on the cytotoxicity of topotecan, HeLa (HeLa cells; 10 µM compound, result in words)
Cc1c(-c2ccc(Br)cc2)c(=O)oc2cccc(OCC3=CC[C@H]4C[C@@H]3C4(C)C)c12 [34c, 3-(4-Bromophenyl)-5-(((1R,5S)-6,6-dimethylbicyclo[3.1.1]hept-2-en-2-yl)methoxy)-4-methyl-2H-chromen-2-one]	0.9 ± 0.07 µM	0.9 ± 0.07 µM	> 100 µM	> 100 µM	protect cells from the cytotoxic effects of topotecan	148 °C				
Cc1c(-c2ccccc2[N+](=O)[O-])c(=O)oc2cccc(OCC3=CC[C@H]4C[C@@H]3C4(C)C)c12 [38c, 5-(((1R,5S)-6,6-Dimethylbicyclo[3.1.1]hept-2-en-2-yl)methoxy)-4-methyl-3-(2-nitrophenyl)-2H-chromen-2-one]	3.83 ± 0.29 µM	3.8 ± 0.3 µM	83 ± 3 µM	32 ± 13 µM						
CC(C)=CCC/C(C)=C/COc1cccc2oc(=O)c(-c3ccccc3Br)c(C)c12 [36a, (E)-3-(2-Bromophenyl)-5-(3,7-dimethylocta-2,6-dienyloxy)-4-methyl-2H-chromen-2-one]	0.85 ± 0.15 µM	0.9 ± 0.2 µM	49 ± 2 µM	59 ± 6 µM						
Cc1c(-c2ccccc2Br)c(=O)oc2cccc(OCC3=CC[C@H]4C[C@@H]3C4(C)C)c12 [36c, 3-(2-Bromophenyl)-5-(((1R,5S)-6,6-dimethylbicyclo[3.1.1]hept-2-en-2-yl)methoxy)-4-methyl-2H-chromen-2-one]	4.36 ± 1.14 µM	4.36 ± 1.14 µM	73.5 ± 0.6 µM	> 100 µM		157 °C				
Cc1c(-c2ccc(Br)cc2)c(=O)oc2cccc(OCCC(C)CCCC(C)C)c12 (stereo not drawn) [34b, 3-(4-Bromophenyl)-5-(3,7-dimethyloctyloxy)-4-methyl-2H-chromen-2-one]						137 °C				
Cc1c(-c2ccc(F)cc2)c(=O)oc2cccc(OCCC(C)CCCC(C)C)c12 (stereo not drawn) [33b, 5-(3,7-Dimethyloctyloxy)-3-(4-fluorophenyl)-4-methyl-2H-chromen-2-one]	0.29 ± 0.07 µM	0.29 ± 0.07 µM	> 100 µM	40 ± 10 µM		114 °C				
CC1(C)C2CC=C(COc3ccc4c5c(c(=O)oc4c3)CCC5)C1C2 (stereo not drawn) [compound 11]							0.7 µM			
COc1ccccc1-c1c(C)c2c(OCCC(C)CCCC(C)C)cccc2oc1=O (stereo not drawn) [37b, 5-(3,7-Dimethyloctyloxy)-3-(2-methoxyphenyl)-4-methyl-2H-chromen-2-one]	2.6 ± 0.35 µM					114 °C				
COc1ccc(-c2c(C)c3c(OCCC(C)CCCC(C)C)cccc3oc2=O)cc1 (stereo not drawn) [35b, 5-(3,7-Dimethyloctyloxy)-3-(4-methoxyphenyl)-4-methyl-2H-chromen-2-one]	0.37 ± 0.16 µM	0.4 ± 0.2 µM	90.7 ± 0.5 µM	> 100 µM						
Cc1c(-c2ccccc2Br)c(=O)oc2cccc(OCCC(C)CCCC(C)C)c12 (stereo not drawn) [36b, 3-(2-Bromophenyl)-5-(3,7-dimethyloctyloxy)-4-methyl-2H-chromen-2-one]	≥ 50 µM					73 °C				
COc1ccc(-c2c(C)c3c(OCC4=CC[C@H]5C[C@@H]4C5(C)C)cccc3oc2=O)cc1 [35c, 5-(((1R,5S)-6,6-Dimethylbicyclo[3.1.1]hept-2-en-2-yl)methoxy)-3-(4-methoxyphenyl)-4-methyl-2H-chromen-2-one]	1.14 ± 0.15 µM	1.1 ± 0.2 µM	73 ± 6 µM	> 100 µM						
COc1ccccc1-c1c(C)c2c(OCC3=CC[C@H]4C[C@@H]3C4(C)C)cccc2oc1=O [37c, 5-(((1R,5S)-6,6-Dimethylbicyclo[3.1.1]hept-2-en-2-yl)methoxy)-3-(2-methoxyphenyl)-4-methyl-2H-chromen-2-one]	0.79 ± 0.06 µM	0.79 ± 0.06 µM	72 ± 2 µM	52.3 ± 0.9 µM	protect cells from the cytotoxic effects of topotecan	164 °C				
CC[C@@]1(O)C(=O)OCc2c1cc1n(c2=O)Cc2cc3c(CN(C)C)c(O)ccc3nc2-1 [Tpc, topotecan]								0.88 ± 0.24 µM	0.04 ± 0.012 µM	
Cc1c(-c2ccc(F)cc2)c(=O)oc2cccc(OCCC3=CC[C@H]4C[C@@H]3C4(C)C)c12 [33d, 5-(2-((1R,5S)-6,6-Dimethylbicyclo[3.1.1]hept-2-en-2-yl)ethoxy)-3-(4-fluorophenyl)-4-methyl-2H-chromen-2-one]	2.51 ± 0.14 µM					114 °C				
CC(C)=CCC/C(C)=C/COc1cccc2oc(=O)c(-c3ccccc3[N+](=O)[O-])c(C)c12 [38a, (E)-5-(3,7-Dimethylocta-2,6-dienyloxy)-4-methyl-3-(2-nitrophenyl)-2H-chromen-2-one]	1.03 ± 0.08 µM	1.03 ± 0.08 µM	> 100 µM	> 100 µM	protect cells from the cytotoxic effects of topotecan	73 °C				
COc1ccccc1-c1c(C)c2c(OC/C=C(\C)CCC=C(C)C)cccc2oc1=O [37a, (E)-5-(3,7-Dimethylocta-2,6-dienyloxy)-3-(2-methoxyphenyl)-4-methyl-2H-chromen-2-one]	1.22 ± 0.04 µM	1.22 ± 0.04 µM	18 ± 10 µM	16 ± 0.7 µM		99 °C				
COc1ccc(-c2c(C)c3c(OC/C=C(\C)CCC=C(C)C)cccc3oc2=O)cc1 [35a, (E)-5-(3,7-Dimethylocta-2,6-dienyloxy)-3-(4-methoxyphenyl)-4-methyl-2H-chromen-2-one]	6.63 ± 1.12 µM	7 ± 1 µM	> 100 µM	> 100 µM		85 °C				
Cc1c(-c2ccccc2[N+](=O)[O-])c(=O)oc2cccc(OCCC(C)CCCC(C)C)c12 (stereo not drawn) [38b, 5-(3,7-Dimethyloctyloxy)-4-methyl-3-(2-nitrophenyl)-2H-chromen-2-one]	2.18 ± 0.13 µM					61 °C				
CC(C)=CCC/C(C)=C/COc1ccc2c(-c3ccc(F)cc3)cc(=O)oc2c1 [compound 12]							0.6 µM			
CC(C)=CCC/C(C)=C/COc1cccc2oc(=O)c(-c3ccc(Br)cc3)c(C)c12 [34a, (E)-3-(4-Bromophenyl)-5-(3,7-dimethylocta-2,6-dienyloxy)-4-methyl-2H-chromen-2-one]	1.06 ± 0.06 µM	1.06 ± 0.06 µM	32 ± 3 µM	53 ± 1.2 µM		93 °C				
CC(C)=CCC/C(C)=C/COc1cccc2oc(=O)c(-c3ccc(F)cc3)c(C)c12 [33a, (E)-5-(3,7-Dimethylocta-2,6-dienyloxy)-3-(4-fluorophenyl)-4-methyl-2H-chromen-2-one]	0.13 ± 0.03 µM	0.13 ± 0.03 µM	> 100 µM	> 100 µM						significantly increased cytotoxicity of topotecan
Cc1c(-c2ccc(F)cc2)c(=O)oc2cccc(OCC3=CC[C@H]4C[C@@H]3C4(C)C)c12 [33c, 5-(((1R,5S)-6,6-Dimethylbicyclo[3.1.1]hept-2-en-2-yl)methoxy)-3-(4-fluorophenyl)-4-methyl-2H-chromen-2-one]	5.25 ± 0.04 µM	5.25 ± 0.04 µM	89 ± 7 µM	> 100 µM		152 °C				
COc1ccccc1-c1c(C)c2c(OCCC3=CC[C@H]4C[C@@H]3C4(C)C)cccc2oc1=O [37d, 5-(2-((1R,5S)-6,6-Dimethylbicyclo[3.1.1]hept-2-en-2-yl)ethoxy)-3-(2-methoxyphenyl)-4-methyl-2H-chromen-2-one]	3.93 ± 0.77 µM	3.9 ± 0.8 µM	48 ± 4 µM	87 ± 7 µM		135 °C				

Source: PMC10253161, “New 5-Hydroxycoumarin-Based Tyrosyl-DNA Phosphodiesterase I Inhibitors Sensitize Tumor Cell Line to Topotecan” (International Journal of Molecular Sciences, 2023)
